Seven molecules from patent US20040147557A1, “Aryl piperidine derivatives as inducers of ldl-receptor expression” (priority 2003, published 2004) can be followed below.

One data set deals with LDL-r promoter. Put plainly: LDL-r promoter luciferase reporter gene assay in stably transfected HepG2 cells. Format: cell-based, human. Particulars: HepG2 cells with LDL-r promoter-luciferase construct, 24 hours incubation, RPMI medium with 2% lipoprotein-deficient serum, induction of luciferase activity, read-out: In vitro (IC50). The procedure: The ability of the compounds of the invention to induce LDL-r expression by human hepatocytes in vitro is determined using a human hepatocarcinoma cell line, Hep G2, as a model system. A reporter gene assay using the LDL-r promoter in front of the reporter gene Luciferase is used as a primary screen.
HepG2 cells, stably transfected with a construct comprising the LDL-r promoter and the luciferase reporter gene, were seeded at 50.000 cells/well in 96 well plates. After 1 day, cells were incubated with compounds for 24 hours in RPMI medium containing 2% of lipoprotein-deficient serum. Compounds were tested from 10^−6M to 10^−9M. Cell lysates were prepared and the luciferase activity was measured by the luciferase assay system (Promega). Induction of luciferase activity was calculated taking untreated cells as control and ED50 of each compounds was determinated compared to the ED50 of an internal standart.

Another data set relates to fat-fed hamsters. Put plainly: Oral administration to fat-fed hamsters, reduction of VLD/LDL cholesterol and TG plasma levels. Format: in vivo, hamster. Conditions: hamsters fed 0.2% cholesterol and 10% coconut oil diet, once a day for 3 days, reduction in VLD/LDL cholesterol and TG plasmatic levels. The method, then:
The in vivo profile of the compounds is evaluated by oral administration of the compounds of the invention to fat-fed hamsters. Measurements of VLD/LDL cholesterol and triglycerides upon treatment allow the activity to be determined.
Compounds were prepared for oral administration by milling with 0.5% hydroxypropylmethylcellulose and 5% Tween 80. Hamsters were fed for 2 weeks with a diet containing 0.2% of cholesterol and 10% of coconut oil. Then compounds were administrated once a day for 3 days, from 20 to 0.2 mg/kg. Plasma lipid levels including total cholesterol, VLD/LDL cholesterol, VLD/LDL triglycerides and HDL-cholesterol were determinated after ultracentrifugation (density 1.063 g/ml to separate VLD/LDL fraction and HDL fraction) using the Biomerieux enzymatic kit. Reductions in VLD/LDL cholesterol and TG plasmatic levels were calculated taking solvant treated animals as control and ED50 of each compound was determined.

Where two headings read alike, the source gives them in different places.

As usually defined, the melting point is the temperature, or range, at which the solid turns liquid. `CCc1ccc(C2CCN(CCCCNC(=O)c3ccc(-c4ccc(C(F)(F)F)cc4)cc3)CC2)c(OCC2CC2)c1` [Example 2, 4′-Trifluoromethyl-biphenyl-4-carboxylic Acid [4-[4-(2-cyclopropylmethoxy-4-ethyl-phenyl)-piperidin-1-yl]-butyl]-amide] had a melting point of 247 to 249 °C.
By IC50 is commonly meant the concentration that inhibits the measured activity by half. On to `COc1c(C2CCN(CCCCNC(=O)c3ccc(-c4ccc(Cl)cc4)cc3)CC2)ccc2ccccc12` [Example 3, 4′-Chloro-biphenyl-4-carboxylic Acid {4-[4-(1-methoxy-naphtalen-2-yl)-piperidin-1-yl]-butyl}-amide], for which, in the data set on LDL-r promoter, the IC50 came to 0.01 µM. For the same molecule, the “In vivo (ED50)” value in the data set with fat-fed hamsters worked out at 2 mg/kg.
`CCOc1cc(CC)ccc1C1CCN(CCCCNC(=O)c2ccc(-c3ccc(C#N)cc3)cc2)CC1` [Example 5, 4′-Cyano-biphenyl-4-carboxylic Acid {4-[4-(2-ethoxy-4-ethyl-phenyl)-piperidin-1-yl]-butyl}-amide] came in with a melting point of 165 °C. For the same molecule, in the data set on LDL-r promoter (Homo sapiens), the 50% inhibitory concentration (IC50) was 0.01 µM. Besides, in the data set with fat-fed hamsters (Mesocricetus auratus, 72 h, read-out: In vivo (ED50)), the ED50 came out at 2 mg/kg.
As for `COc1c(C2CCN(CCCCNC(=O)c3ccc(-c4ccc(C#N)cc4)cc3)CC2)ccc2c1CCCC2` [Example 11, 4′-Cyano-biphenyl-4-carboxylic Acid {4-[4-(1-methoxy-5,6,7,8-tetrahydro-naphtalen-2-yl)-piperidin-1-yl]-butyl}-amide], the IC50 in the data set on LDL-r promoter amounted to 0.01 µM. Besides, the “In vivo (ED50)” value in the data set with fat-fed hamsters is 1 mg/kg.
As to `CCOc1cc(CC)ccc1C1CCN(CCCCNC(=O)c2ccc(-c3ccc(S(C)(=O)=O)cc3)cc2)CC1` [Example 12, 4′-Methanesulfonyl-biphenyl-4-carboxylic Acid {4-[4-(2-ethoxy-4-ethyl-phenyl)-piperidin-1-yl]-butyl}-amide], the melting point lay in the range of 179 to 180 °C.
Molecule `CCc1ccc(C2CCN(CCCCNC(=O)c3ccc(-c4ccc(C#N)cc4)cc3)CC2)c(O)c1` [Example 14, 4′-Cyano-biphenyl-4-carboxylic Acid {4-[4-(2-hydroxy-4-ethyl-phenyl)-piperidin-1-yl]-butyl}-amide] came in with a melting point of 252 °C.
`Cc1ccc(C2CCN(CCCCNC(=O)c3ccc(-c4ccc(C#N)cc4)cc3)CC2)c(O)c1` [Example 18, 4′-Cyano-biphenyl-4-carboxylic Acid {4-[4-(2-hydroxy-4-methyl-phenyl)-piperidin-1-yl]-butyl}-amide] returned a melting point of 184 °C.
